Assay results as given in article PMC5053890 (Bioorganic & medicinal chemistry, 2016).

Molecular target: T1, GVIA iPLA2 (Homo sapiens, UniProt O60733)
T1 sequence (O60733 1-806): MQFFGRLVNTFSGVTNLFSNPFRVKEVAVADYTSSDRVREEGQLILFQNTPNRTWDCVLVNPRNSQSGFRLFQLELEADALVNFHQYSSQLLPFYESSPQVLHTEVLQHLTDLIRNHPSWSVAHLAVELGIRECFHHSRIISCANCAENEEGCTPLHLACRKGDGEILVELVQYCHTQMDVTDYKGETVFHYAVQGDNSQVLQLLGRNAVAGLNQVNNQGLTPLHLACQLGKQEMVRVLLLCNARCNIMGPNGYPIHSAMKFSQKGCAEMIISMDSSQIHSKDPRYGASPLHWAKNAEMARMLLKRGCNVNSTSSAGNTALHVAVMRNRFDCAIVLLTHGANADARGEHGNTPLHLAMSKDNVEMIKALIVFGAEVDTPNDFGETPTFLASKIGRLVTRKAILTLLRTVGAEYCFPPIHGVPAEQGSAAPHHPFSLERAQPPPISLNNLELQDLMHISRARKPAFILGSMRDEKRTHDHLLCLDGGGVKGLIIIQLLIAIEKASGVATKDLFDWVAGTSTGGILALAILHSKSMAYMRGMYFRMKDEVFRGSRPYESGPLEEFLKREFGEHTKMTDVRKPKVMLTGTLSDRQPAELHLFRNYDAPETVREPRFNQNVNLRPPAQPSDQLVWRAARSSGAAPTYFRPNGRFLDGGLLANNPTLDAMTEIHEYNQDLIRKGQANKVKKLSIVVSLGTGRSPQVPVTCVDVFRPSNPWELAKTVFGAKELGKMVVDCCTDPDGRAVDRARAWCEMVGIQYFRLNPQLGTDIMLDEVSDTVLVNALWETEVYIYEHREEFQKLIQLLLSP
Experiment: hydrogen/deuterium exchange mass spectrometry
Type: binding

SMILES: CCCCCCCCSCC(=O)C(F)(F)F [Compound 3]
- Average % Deuteration (Presence of OTFP) (peptide region 481-493): 27%
- Average % Deuteration (Presence of OTFP) (peptide region 514-524): 48%
- Average % Deuteration (Presence of OTFP) (peptide region 542-562): 51%
- Average % Deuteration (Presence of OTFP) (peptide region 630-655): 48%
- Average % Deuteration (Presence of OTFP) (peptide region 656-664): 49%
- Average % Deuteration (Presence of OTFP) (peptide region 770-778): 43%
